The test system of the assay is Control-Sss reference system (specific and nonspecific DNA fragments). In words: mTAG labeling, biotinylation, capture on streptavidin beads and multiplex real-time PCR of Control-Sss reference system. The note with it: 50 ng Control-Sss mixed with 300 ng sonicated human brain genomic DNA; 50 μM Ado-6-amine; 1450 nM enzyme; 37° C. 30 min. (In general: Real-time PCR tracks product formation cycle by cycle.)

Regarding “SssI (Q142A/N370A): His6-tagged M.SssI C5 DNA methyltransferase (CG target site) double-alanine mutant Q142A/N370A”, the “level of nonspecific probe found” value was “less than 1%” and the “yield of captured specific probe containing two SssI target sites” value was around 80%.

The record behind these values is US20130130922A1, “ANALYSIS OF METHYLATION SITES” (Centre for Addiction and Mental Health, priority 2011, published 2013).
